Patent US9212170B2, “4-alkanoylamino-3-pyrazolone derivative” (Daiichi Sankyo Company, Limited, priority 2012, dated 2015)
Structures can show the parent of a compound that is named as a salt.

Test system: human liver cancer-derived cell line Hep3B
Assay: In vitro erythropoietin (EPO) induction activity in Hep3B cells (human EPO ELISA of culture supernatant)
Type: cell-based
Conditions: test compound 12.5 μM in 0.5% DMSO, 32 hours at 37° C., EPO in culture supernatant expressed as a multiple of the control (0.5% DMSO = 1), read-out: EPO concentration (multiple)
Protocol: In vitro erythropoietin (EPO) induction activity of test compounds was evaluated using human liver cancer-derived cell line Hep3B (ATCC, Manassas, Va.). Hep3B cells were cultured overnight at 37° C. in Dulbecco's modified Eagle's medium (DMEM) in the presence of 10% fetal bovine serum (FBS) (24-well plate, 1.0×10^5 cells/well). After replacing with fresh DMEM (+10% FBS) containing a test compound dissolved in 0.5% dimethyl sulfoxide (DMSO) (prepared to a concentration of 12.5 μM) or a solvent control (0.5% DMSO), the cells were cultured for 32 hours at 37° C. After recovering the culture supernatant, EPO concentration in the culture supernatant was quantified using human EPO ELISA kits (StemCell Technologies). The EPO concentration obtained using each test compound was expressed as a multiple of the EPO concentration obtained using the control.

Structure (SMILES) | fold induction at 12.5 µM
CC(=O)Nc1c(C)[nH]n(-c2ccc(COCc3ccc(C(F)(F)F)cc3)cn2)c1=O [Example 24, N-{5-Methyl-3-oxo-2-[5-({[4-(trifluoromethyl)benzyl]oxy}methyl)pyridin-2-yl]-2,3-dihydro-1H-pyrazol-4-yl}acetamide] | 22
CC(=O)Nc1c[nH]n(-c2cc(COCc3ccccc3)ccn2)c1=O [Example 10, N-(2-{4-[(Benzyloxy)methyl]pyridin-2-yl}-3-oxo-2,3-dihydro-1H-pyrazol-4-yl)acetamide] | 23
CC(=O)Nc1c[nH]n(-c2ccc(C(=O)Nc3ccc(C(F)(F)F)cc3)cn2)c1=O [Example 4, 6-(4-Acetamido-5-oxo-2,5-dihydro-1H-pyrazol-1-yl)-N-[4-(trifluoromethyl)phenyl]nicotinamide] | 17
CC(=O)Nc1c(C)[nH]n(-c2ccc(CCc3ccc(C(F)(F)F)cc3)cn2)c1=O [Example 26, N-[5-Methyl-3-oxo-2-(5-{2-[4-(trifluoromethyl)phenyl]ethyl}pyridin-2-yl)-2,3-dihydro-1H-pyrazol-4-yl]acetamide] | 22
CC(=O)Nc1c[nH]n(-c2ccc(COCc3ccc(-c4ccccc4C#N)cc3)cn2)c1=O [Example 13, N-[2-(5-{[(2′-Cyanobiphenyl-4-yl)methoxy]methyl}pyridin-2-yl)-3-oxo-2,3-dihydro-1H-pyrazol-4-yl]acetamide] | 29
CC(=O)Nc1c[nH]n(-c2cc(N3CCCCC3)ncn2)c1=O [Example 7, N-[3-Oxo-2-(6-piperidin-1-ylpyrimidin-4-yl)-2,3-dihydro-1H-pyrazol-4-yl]acetamide formate] | 29
CC(=O)Nc1c[nH]n(-c2ccc(C(=O)Nc3cccc(C(C)(C)C)c3)cn2)c1=O [Example 3, 6-(4-Acetamido-5-oxo-2,5-dihydro-1H-pyrazol-1-yl)-N-(3-tert-butylphenyl)nicotinamide] | 17
CC(=O)Nc1c[nH]n(-c2cc(N3CCOCC3)ncn2)c1=O [Example 6, N-[2-(6-Morpholin-4-ylpyrimidin-4-yl)-3-oxo-2,3-dihydro-1H-pyrazol-4-yl]acetamide formate] | 13
CC(=O)Nc1c[nH]n(-c2ccc(COCc3cccc(-c4ccccc4)c3)cn2)c1=O [Example 15, N-(2-{5-[(Biphenyl-3-ylmethoxy)methyl]pyridin-2-yl}-3-oxo-2,3-dihydro-1H-pyrazol-4-yl)acetamide] | 24
CC(=O)Nc1c[nH]n(-c2ccc(COCc3ccc(-c4ccccc4)cc3)cn2)c1=O [Example 14, N-(2-{5-[(Biphenyl-4-ylmethoxy)methyl]pyridin-2-yl}-3-oxo-2,3-dihydro-1H-pyrazol-4-yl)acetamide] | 22
CC(=O)Nc1c[nH]n(-c2ccc(COCc3ccccc3)cn2)c1=O [Example 8, N-(2-{5-[(Benzyloxy)methyl]pyridin-2-yl}-3-oxo-2,3-dihydro-1H-pyrazol-4-yl)acetamide] | 26
CC(=O)Nc1c(C)[nH]n(-c2ccc(Cc3ccc(C(F)(F)F)cc3)cn2)c1=O [Example 25, N-(5-Methyl-3-oxo-2-{5-[4-(trifluoromethyl)benzyl]pyridin-2-yl}-2,3-dihydro-1H-pyrazol-4-yl)acetamide] | 16
CC(=O)Nc1c(C)[nH]n(-c2ccc(C(=O)Nc3ccc(C(F)(F)F)cc3)cn2)c1=O [Example 16, 6-(4-Acetamido-3-methyl-5-oxo-2,5-dihydro-1H-pyrazol-1-yl)-N-[4-(trifluoromethyl)phenyl]nicotinamide] | 3.4
CC(=O)Nc1c(C)[nH]n(-c2ccc(C(=O)Nc3ccc(-c4ccccc4)nc3)cn2)c1=O [Example 20, 6-(4-Acetamido-3-methyl-5-oxo-2,5-dihydro-1H-pyrazol-1-yl)-N-(6-phenylpyridin-3-yl)nicotinamide] | 3.7
CC(=O)Nc1c[nH]n(-c2ccc(C(=O)NCc3ccc(-c4ccccc4C#N)cc3)cn2)c1=O [Example 12, 6-(4-Acetamido-5-oxo-2,5-dihydro-1H-pyrazol-1-yl)-N-[(2′-cyanobiphenyl-4-ylmethyl)]nicotinamide] | 2.8
Cc1[nH]n(-c2ccc(C(=O)Nc3ccc(-c4ccccc4)nc3)cn2)c(=O)c1NC(=O)CCC(=O)OC(C)(C)C [Example 22, Tert-butyl 4-[(5-methyl-3-oxo-2-{5-[(6-phenylpyridyl-3-yl)carbamoyl]pyridin-2-yl}-2,3-dihydro-1H-pyrazol-4-yl)amino]-4-oxobutanoate] | 1.9
CC(=O)Nc1c[nH]n(-c2ccc(C(=O)Nc3ccc(Cl)cc3)cn2)c1=O [Example 5, 6-(4-Acetamido-5-oxo-2,5-dihydro-1H-pyrazol-1-yl)-N-(4-chlorophenyl)nicotinamide] | 12
CC(=O)Nc1c(C)[nH]n(-c2ccc(/C=C/c3ccc(C(F)(F)F)cc3)cn2)c1=O [Example 27, N-[5-Methyl-3-oxo-2-(5-{(E)-2-[4-(trifluoromethyl)phenyl]ethenyl}pyridin-2-yl)-2,3-dihydro-1H-pyrazol-4-yl]acetamide] | 2.7
CC(=O)Nc1c[nH]n(-c2ccc(C(=O)NCc3cccc(-c4ccccc4)c3)cn2)c1=O [Example 11, 6-(4-Acetamido-5-oxo-2,5-dihydro-1H-pyrazol-1-yl)-N-(biphenyl-3-ylmethyl)nicotinamide] | 41
CC(=O)Nc1c(C)[nH]n(-c2ccc(C(=O)Nc3ccc(C(C)(C)C)cc3)cn2)c1=O [Example 19, 6-(4-Acetamido-3-methyl-5-oxo-2,5-dihydro-1H-pyrazol-1-yl)-N-(4-tert-butylphenyl)nicotinamide] | 13
Cc1[nH]n(-c2ccc(C(=O)Nc3ccc(-c4ccccc4)nc3)cn2)c(=O)c1NC(=O)CCC(=O)O [Example 23, 4-[(5-Methyl-3-oxo-2-{5-[(6-phenylpyridyl-3-yl)carbamoyl]pyridin-2-yl}-2,3-dihydro-1H-pyrazol-4-yl)amino]-4-oxobutanoic acid] | 2.7
CC(=O)Nc1c(C)[nH]n(-c2ccc(COCc3ccc(-c4ccccc4C#N)cc3)cn2)c1=O [Example 21, N-[2-(5-{[(2′-Cyanobiphenyl-4-yl)methoxy]methyl}pyridin-2-yl)-5-methyl-3-oxo-2,3-dihydro-1H-pyrazol-4-yl]acetamide] | 20
CC(=O)Nc1c(C)[nH]n(-c2ccc(C(=O)Nc3ccc(Br)cc3)cn2)c1=O [Example 18, 6-(4-Acetamido-3-methyl-5-oxo-2,5-dihydro-1H-pyrazol-1-yl)-N-(4-bromophenyl)nicotinamide] | 3.3
CC(=O)Nc1c[nH]n(-c2ccc(C(=O)Nc3ccc(C(C)(C)C)cc3)cn2)c1=O [Example 2, 6-(4-Acetamido-5-oxo-2,5-dihydro-1H-pyrazol-1-yl)-N-(4-tert-butylphenyl)nicotinamide] | 36
CC(=O)Nc1c(C)[nH]n(-c2ccc(C(=O)Nc3ccc(Cl)cc3)cn2)c1=O [Example 17, 6-(4-Acetamido-3-methyl-5-oxo-2,5-dihydro-1H-pyrazol-1-yl)-N-(4-chlorophenyl)nicotinamide] | 4.3
CC(=O)Nc1c[nH]n(-c2ccc(C(=O)Nc3ccc(C4CCCCC4)cc3)cn2)c1=O [Example 1, 6-(4-Acetamido-5-oxo-2,5-dihydro-1H-pyrazol-1-yl)-N-(4-cyclohexylphenyl)nicotinamide] | 37
CC(=O)Nc1c[nH]n(-c2cc(NCCc3ccccc3)ncn2)c1=O [Example 9, N-(3-Oxo-2-{6-[(2-phenylethyl)amino]pyrimidin-4-yl}-2,3-dihydro-1H-pyrazol-4-yl)acetamide] | 6.1
